Source: patent publication US11241579B2, “Monitoring and modulation of parasympathetic nervous system” (THE REGENTS OF THE UNIVERSITY OF CALIFORNIA, priority 2016, dated 2022)

What was measured:
MNS-induced AF = details: cited from earlier work; for effect on MNS-induced AF: previous work
[1] = tested on: intrinsic cardiac (IC) neurons; experiment: evoked action potentials of intrinsic cardiac neurons after local drug application (intracellular recording); type: cell-based, guinea pig; details: 10^-3 M, 1- to 2-s local pressure ejection; across all groups (control, PO, PO+RCV, PO+LCV)
Procedure: Intracellular voltage recordings from IC neurons derived from explanted IC ganglia placed in 35-37° C. Krebs-Ringer solution were obtained by impaling cells with 3 M KCl-filled glass micropipettes (40- to 80-Me resistance) using an Axoclamp 2B amplifier (Molecular Devices). Data were collected, digitized, and analyzed using pClamp 10.2 (Molecular Devices). Individual neurons were used for data analysis if their resting membrane potential (RMP) was −40 mV or less and produced action potentials (APs) with an overshoot of >20 mV. Input resistance was determined using 0.1- and 0.2-nA pulses (500 ms). Neuronal soma excitability was monitored by observing the response to a series of long depolarizing current pulses (0.1-0.6 nA, 500 ms). The number of evoked APs vs. stimulus intensity was determined to assess relative changes in excitability. Afterhyperpolarization (AHP) durations were analyzed to determine the time to reach 50% of the amplitude from the peak of the AHP to the RMP.
For each cell, after characterization of the basic electrophysiological properties, induced changes in the number of evoked APs by depolarizing pulses were again assessed immediately following a 1- to 2-s application of NE (10^-3 M; Sigma) or bethanechol (a muscarinic agonist, 10^-3 M; Sigma). […]

SMILES	effect on MNS-induced AF (MNS-induced AF)	other results
C[N+](C)(C)CCCCCC[N+](C)(C)C [Hexamethonium]	–	number of AF responses to MNS stimulation (MNS-induced AF; posttreatment, from 90% baseline): 10%
NC[C@H](O)c1ccc(O)c(O)c1 [NE, norepinephrine]	–	changes in IC neuronal sensitivity elicited by local application [1]: less than that elicited by bethanecol
CN1[C@@H]2CC[C@H]1C[C@@H](OC(=O)C(CO)c1ccccc1)C2 (stereo partly shown) [atropine]	eliminated	–
CC(C)(C)NC[C@H](O)COc1nsnc1N1CCOCC1 [timolol]	modified	–
